From ChEMBL document CHEMBL4308841, “Synthesis, in vitro antiproliferative activity, and kinase inhibitory effects of pyrazole-containing diarylureas and diarylamides” (Eur J Med Chem, 2018)

What was measured:
NCI-H226 = assay: Growth inhibition of human NCI-H226 cells assessed as cell growth at 1 uM incubated for 48 hrs by sulforhodamine B assay relative to control; type: functional; conditions: NCI-H226, 48 h, read-out: Activity
OVCAR-5 = assay: Growth inhibition of human OVCAR5 cells assessed as cell growth at 0.01 uM incubated for 48 hrs by sulforhodamine B assay relative to control; type: functional; conditions: OVCAR-5, 48 h, read-out: Activity
NCI/ADR-RES = assay: Growth inhibition of human NCI/ADR-RES cells assessed as cell growth at 0.1 uM incubated for 48 hrs by sulforhodamine B assay relative to control; type: functional; conditions: read-out: Activity
K562 [1] = assay: Growth inhibition of human K562 cells assessed as cell growth at 0.1 uM incubated for 48 hrs by sulforhodamine B assay relative to control; type: functional; conditions: K562, 48 h, read-out: Activity
SK-MEL-5 [2] = assay: Growth inhibition of human SK-MEL-5 cells assessed as cell growth at 100 uM incubated for 48 hrs by sulforhodamine B assay relative to control; type: functional; conditions: SK-MEL-5, 48 h, read-out: Activity
MCF7 = assay: Growth inhibition of human MCF7 cells assessed as cell growth at 0.01 uM incubated for 48 hrs by sulforhodamine B assay relative to control; type: functional; conditions: MCF7, 48 h, read-out: Activity
HCT-116 = assay: Growth inhibition of human HCT116 cells incubated for 48 hrs by sulforhodamine B assay; type: functional, cell-based; conditions: HCT-116, 48 h
SF-268 = assay: Growth inhibition of human SF268 cells assessed as cell growth at 0.01 uM incubated for 48 hrs by sulforhodamine B assay relative to control; type: functional; conditions: SF-268, 48 h, read-out: Activity
T47D = assay: Growth inhibition of human T47D cells incubated for 48 hrs by sulforhodamine B assay; type: functional, cell-based
SK-MEL-5 [3] = assay: Growth inhibition of human SK-MEL-5 cells assessed as cell growth at 0.1 uM incubated for 48 hrs by sulforhodamine B assay relative to control; type: functional; conditions: SK-MEL-5, 48 h, read-out: Activity
A549 = assay: Growth inhibition of human A549/ATCC cells incubated for 48 hrs by sulforhodamine B assay; type: functional, cell-based; conditions: A549, 48 h
CAKI-1 = assay: Growth inhibition of human Caki1 cells assessed as cell growth at 0.1 uM incubated for 48 hrs by sulforhodamine B assay relative to control; type: functional; conditions: CAKI-1, 48 h, read-out: Activity
NCI-H23 [4] = assay: Growth inhibition of human NCI-H23 cells assessed as cell growth at 1 uM incubated for 48 hrs by sulforhodamine B assay relative to control; type: functional; conditions: NCI-H23, 48 h, read-out: Activity
SNB-75 = assay: Growth inhibition of human SNB75 cells assessed as cell growth at 0.1 uM incubated for 48 hrs by sulforhodamine B assay relative to control; type: functional; conditions: SNB-75, 48 h, read-out: Activity
UACC-62 = assay: Growth inhibition of human UACC62 cells assessed as cell growth at 0.01 uM incubated for 48 hrs by sulforhodamine B assay relative to control; type: functional; conditions: UACC-62, 48 h, read-out: Activity
MDA-MB-468 [5] = assay: Growth inhibition of human MDA-MB-468 cells incubated for 48 hrs by sulforhodamine B assay; type: functional, cell-based; conditions: MDA-MB-468, 48 h
RPMI-8226 = assay: Growth inhibition of human RPMI8226 cells assessed as cell growth at 0.01 uM incubated for 48 hrs by sulforhodamine B assay relative to control; type: functional; conditions: RPMI-8226, 48 h, read-out: Activity
K562 [6] = assay: Growth inhibition of human K562 cells assessed as cell growth at 100 uM incubated for 48 hrs by sulforhodamine B assay relative to control; type: functional; conditions: K562, 48 h, read-out: Activity
MDA-MB-468 [7] = assay: Growth inhibition of human MDA-MB-468 cells assessed as cell growth at 1 uM incubated for 48 hrs by sulforhodamine B assay relative to control; type: functional; conditions: MDA-MB-468, 48 h, read-out: Activity
SN12C = assay: Growth inhibition of human SN12C cells assessed as cell growth at 0.1 uM incubated for 48 hrs by sulforhodamine B assay relative to control; type: functional; conditions: read-out: Activity
LOX IMVI = assay: Growth inhibition of human LOXIMVI cells assessed as cell growth at 0.01 uM incubated for 48 hrs by sulforhodamine B assay relative to control; type: functional; conditions: read-out: Activity
NCI-H322M = assay: Growth inhibition of human NCI-H322M cells assessed as cell growth at 1 uM incubated for 48 hrs by sulforhodamine B assay relative to control; type: functional; conditions: read-out: Activity
HCT-15 = assay: Growth inhibition of human HCT15 cells assessed as cell growth at 1 uM incubated for 48 hrs by sulforhodamine B assay relative to control; type: functional; conditions: HCT-15, 48 h, read-out: Activity
HT-29 = assay: Growth inhibition of human HT-29 cells assessed as cell growth at 1 uM incubated for 48 hrs by sulforhodamine B assay relative to control; type: functional; conditions: HT-29, 48 h, read-out: Activity
NCI-H23 [8] = assay: Growth inhibition of human NCI-H23 cells assessed as cell growth at 100 uM incubated for 48 hrs by sulforhodamine B assay relative to control; type: functional; conditions: NCI-H23, 48 h, read-out: Activity
786-0 = assay: Growth inhibition of human 786-0 cells assessed as cell growth at 0.1 uM incubated for 48 hrs by sulforhodamine B assay relative to control; type: functional; conditions: 786-0, 48 h, read-out: Activity
COLO 205 = assay: Growth inhibition of human COLO205 cells incubated for 48 hrs by sulforhodamine B assay; type: functional, cell-based; conditions: COLO 205, 48 h
SNB-19 = assay: Growth inhibition of human SNB19 cells assessed as cell growth at 0.01 uM incubated for 48 hrs by sulforhodamine B assay relative to control; type: functional; conditions: SNB-19, 48 h, read-out: Activity
[9] = read-out: LC50 (the source's name)
[10] = read-out: pLC50 (the source's name) (converted)

O=C(Nc1cccc(-n2cc(-c3ccncc3)c(-c3cc(O)cc(Cl)c3)n2)c1)c1cc(C(F)(F)F)cc(C(F)(F)F)c1
growth at 1 µM (NCI-H226): 91% | growth at 0.01 µM (OVCAR-5): 92% | growth at 0.1 µM (NCI/ADR-RES): 100% | growth at 0.1 µM (K562 [1]): 89% | growth at 100 µM (SK-MEL-5 [2]): -45% | growth at 0.01 µM (MCF7): 58% | IC50 (HCT-116): 3.23 µM | GI50 (HCT-116; read-out: GI50): 3.23 µM | CC50 (HCT-116; [9]): > 100 µM | TGI (HCT-116; read-out: TGI): > 100 µM | GI50 (HCT-116; read-out: pGI50 (converted)): 3.24 µM | CC50 (HCT-116; [10]): > 100 µM | TGI (HCT-116; read-out: pTGI (converted)): > 100 µM | growth at 0.01 µM (SF-268): 92% | GI50 (T47D; read-out: GI50): 2.99 µM | CC50 (T47D; [9]): > 100 µM | TGI (T47D; read-out: TGI): 94.6 µM | GI50 (T47D; read-out: pGI50 (converted)): 3.02 µM | CC50 (T47D; [10]): > 100 µM | TGI (T47D; read-out: pTGI (converted)): 95.5 µM | growth at 0.1 µM (SK-MEL-5 [3]): 95% | IC50 (A549): 2.62 µM | GI50 (A549; read-out: GI50): 2.52 µM | CC50 (A549; [9]): > 100 µM | TGI (A549; read-out: TGI): > 100 µM | GI50 (A549; read-out: pGI50 (converted)): 2.63 µM | CC50 (A549; [10]): > 100 µM | TGI (A549; read-out: pTGI (converted)): > 100 µM | growth at 0.1 µM (CAKI-1): 98% | growth at 1 µM (NCI-H23 [4]): 98% | growth at 0.1 µM (SNB-75): 87% | growth at 0.01 µM (UACC-62): 90% | IC50 (MDA-MB-468 [5]): 3.1 µM | GI50 (MDA-MB-468 [5]; read-out: GI50): 3.1 µM | CC50 (MDA-MB-468 [5]; [9]): > 100 µM | TGI (MDA-MB-468 [5]; read-out: TGI): > 100 µM | GI50 (MDA-MB-468 [5]; read-out: pGI50 (converted)): 3.09 µM | CC50 (MDA-MB-468 [5]; [10]): > 100 µM | TGI (MDA-MB-468 [5]; read-out: pTGI (converted)): > 100 µM | growth at 0.01 µM (RPMI-8226): 105% | growth at 100 µM (K562 [6]): 7% | growth at 1 µM (MDA-MB-468 [7]): 52% | growth at 0.1 µM (SN12C): 98% | growth at 0.01 µM (LOX IMVI): 101% | growth at 1 µM (NCI-H322M): 90% | growth at 1 µM (HCT-15): 79% | growth at 1 µM (HT-29): 79% | growth at 100 µM (NCI-H23 [8]): -10% | growth at 0.1 µM (786-0): 97% | GI50 (COLO 205; read-out: GI50): 2.32 µM | CC50 (COLO 205; [9]): > 100 µM | TGI (COLO 205; read-out: TGI): 57.4 µM | GI50 (COLO 205; read-out: pGI50 (converted)): 2.34 µM | CC50 (COLO 205; [10]): > 100 µM | TGI (COLO 205; read-out: pTGI (converted)): 5.75 µM | growth at 0.01 µM (SNB-19): 97%
